Laboratory results from ChEMBL document CHEMBL3045715, “Fungicidal Properties of N-(3, 5-Dichlorophenyl)-N-methoxyformamidine and Computer Studies of Its Active Structures” (J Pestic Sci, 1991).
The source made the active and inactive calls. No cut-off for these calls is given here.

What was measured:
Botrytis cinerea [1] = experiment: Resistant ratio of EC50 for benzimidazole-sensitive Botryotinia fuckeliana Bc-9 to EC50 for benzimidazole-resistant Botryotinia fuckeliana Bc-44; assay type: functional
Botrytis cinerea [2] = experiment: Antifungal activity against benzimidazole-sensitive Botryotinia fuckeliana Bc-9 assessed as inhibition of radial mycelial growth after 48 hr; assay type: functional, organism-based
Botrytis cinerea [3] = experiment: Antifungal activity against benzimidazole-resistant Botryotinia fuckeliana Bc-44 assessed as inhibition of radial mycelial growth after 48 hr; assay type: functional, organism-based
Botrytis cinerea [4] = experiment: Antifungal activity against Botryotinia fuckeliana Bc-44 in kidney bean leaves assessed as reduction of disease diameter lesions at 200 ppm after 4 days; assay type: functional; design: scale not given: the % may be the effect or the level left
Botrytis cinerea [5] = experiment: Antifungal activity against Botryotinia fuckeliana Bc-44 in kidney bean leaves assessed as reduction of disease diameter lesions at 50 ppm after 4 days; assay type: functional; design: scale not given: the % may be the effect or the level left
Botrytis cinerea [6] = experiment: Antifungal activity against benzimidazole-sensitive Botryotinia fuckeliana Bc-9 assessed as inhibition of hyphae extension at 15 ug/ml after 48 hr; assay type: functional, organism-based
Botrytis cinerea [7] = experiment: Antifungal activity against benzimidazole-sensitive Botryotinia fuckeliana Bc-9 assessed as distorted and swollen germ tube at 15 ug/ml after 48 hr; assay type: functional, organism-based
Botrytis cinerea [8] = experiment: Antifungal activity against benzimidazole-resistant Botryotinia fuckeliana Bc-44 assessed as inhibition of hyphae extension at 15 ug/ml after 48 hr; assay type: functional, organism-based
Botrytis cinerea [9] = experiment: Antifungal activity against benzimidazole-resistant Botryotinia fuckeliana Bc-44 assessed as distorted and swollen germ tube at 15 ug/ml after 48 hr; assay type: functional, organism-based
Botrytis cinerea [10] = experiment: Antifungal activity against benzimidazole-resistant Botryotinia fuckeliana Bc-44 assessed as inhibition of conidia germination at 15 ug/ml after 48 hr; assay type: functional, organism-based
Botrytis cinerea [11] = experiment: Antifungal activity against benzimidazole-sensitive Botryotinia fuckeliana Bc-9 assessed as inhibition of hyphae extension at 1 ug/ml after 48 hr; assay type: functional, organism-based
Botrytis cinerea [12] = experiment: Antifungal activity against benzimidazole-sensitive Botryotinia fuckeliana Bc-9 assessed as distorted and swollen germ tube at 1 ug/ml after 48 hr; assay type: functional, organism-based

SMILES | Activity (Botrytis cinerea [4]) | Activity (Botrytis cinerea [5]) | other results
CNC(=O)Oc1nc2ccccc2[nH]1 |  |  | Ratio EC50 (Botrytis cinerea [1]): 0.0005; EC50 (Botrytis cinerea [2]): 0.05 ppm; EC50 (Botrytis cinerea [3]): > 100 ppm
CCO/N=C(\C)Nc1cc(Cl)cc(Cl)c1 | 100% | 50% | 
CCO/N=C/Nc1cc(Cl)cc(Cl)c1 | 100% | 90% | 
CO/N=C/Nc1cc(Cl)cc(Cl)c1 | 100% | 90% | inhibition (Botrytis cinerea [6]): inactive; inhibition (Botrytis cinerea [7]): inactive; inhibition (Botrytis cinerea [8]): Active; inhibition (Botrytis cinerea [9]): Active; Activity (Botrytis cinerea [10]): inactive; Ratio EC50 (Botrytis cinerea [1]): 10; EC50 (Botrytis cinerea [2]): 30 ppm; EC50 (Botrytis cinerea [3]): 3 ppm
CCONC(=O)Nc1cc(Cl)cc(Cl)c1 | <25% | <25% | 
Clc1cc(Cl)cc(Nc2nccs2)c1 | 26% | <25% | 
CCO/N=C(/Nc1cc(Cl)cc(Cl)c1)SC | 26% | <25% | 
COC(=O)Nc1cc(Cl)cc(Cl)c1 | 100% | 90% | inhibition (Botrytis cinerea [11]): inactive; inhibition (Botrytis cinerea [12]): inactive; Ratio EC50 (Botrytis cinerea [1]): 25; EC50 (Botrytis cinerea [2]): 5 ppm; EC50 (Botrytis cinerea [3]): 0.2 ppm
N#CNc1cc(Cl)cc(Cl)c1 | <25% | <25% | 
CCONC(=S)Nc1cc(Cl)cc(Cl)c1 | <25% | <25% | 
CN(C#N)c1cc(Cl)cc(Cl)c1 | 90% | 26% | 
